Source: article PMC7883726 (Acta Pharmaceutica Sinica. B, 2021)
Entries after “also recorded” stand apart in the source; their conditions may differ. Read-outs that look alike come from different tables or passages of the source.

Legend:
[1] = system: HCoV-OC43; assay: HCoV-OC43 cytopathic effects; assay type: cell-based
[2] = system: HEK293T cells; conditions: below 50 μmol/L, CCK-8
[3] = system: SARS-CoV-2; conditions: read-out: EC50 SARS-CoV-2 in vitro; cited from earlier work
[4] = target: T1, SARS-CoV-2 RdRp (Severe acute respiratory syndrome coronavirus 2, UniProt P0DTD1); assay: biochemical; conditions: read-out: inhibition of polymerase activity
[5] = target: T1, SARS-CoV-2 RdRp; assay: cell-based
[6] = target: SARS-CoV-2 RdRp with nsp10–nsp14 exoribonuclease complex (Severe acute respiratory syndrome coronavirus 2, UniProt P0DTD1); assay type: cell-based; conditions: with versus without nsp10–nsp14
[7] = target: SARS-CoV-2 Mpro (Severe acute respiratory syndrome coronavirus 2, UniProt P0DTD1); assay: SARS-CoV-2 Mpro enzyme activity inhibition assay; assay type: biochemical; conditions: 10 μmol/L
[8] = cited from earlier work
[9] = orally administered, cited from earlier work
[10] = rats, orally administered; cited from earlier work

Row | SMILES | concentration protecting cells from CPE induced by HCoV-OC43 [1] [µmol/L] | cytotoxicity on HEK293T cells [2] | EC50 [3] [µM] | inhibition at 2.5 µM [4] [%] | inhibition at 10 µM [4] [%] | inhibition at 40 µM [4] [%] | EC50 [5] [µM] | fold increase in EC50 on expression of nsp10–nsp14 [6] | inhibitory effect on SARS-CoV-2 Mpro [7] | LD50 [8] | acute dose showing maximum tolerance [8] | toxicity in acute toxicity studies ([8]; oral) | half lifetime (t1/2) ([9]; mice and rats) | time to Cmax (Tmax) ([9]; mice and rats) [h] | maximum plasma concentration (Cmax) ([9]; mice) [µg/mL] | maximum plasma concentration (Cmax) [10] [µg/mL]
1 | CCC(CC)COC(=O)[C@H](C)N[P@](=O)(OC[C@H]1O[C@@](C#N)(c2ccc3c(N)ncnn23)[C@H](O)[C@@H]1O)Oc1ccccc1 [remdesivir, reference compound] | 0.39 | Neither remdesivir nor RAI-S-37 showed cytotoxicity | – | – | – | – | – | – | – | – | – | – | – | – | – | –
2 | NC(=O)c1ncn([C@@H]2O[C@H](CO)[C@@H](O)[C@H]2O)n1 [ribavirin] | – | – | 110 | – | – | – | – | – | – | – | – | – | – | – | – | –
3 | O=C(O[C@@H]1O[C@@H]2COC(=O)c3cc(O)c(O)c(O)c3-c3c(cc(O)c(O)c3O)C(=O)O[C@H]([C@H]1O)[C@@H]2O)c1cc(O)c(O)c(O)c1 [RAI-S-37, Corilagin] | 0.78 | Neither remdesivir nor RAI-S-37 showed cytotoxicity | – | 24 | 73 | 83 | 3.33 | same EC50 values; also recorded: remain the same | did not show any inhibitory effect | 3500–5000 mg/kg b. wt. | up to 3500 mg/kg body weight (b.wt.) | did not show any toxicity | about 6 h | ~2 | 57.0 | 52.37
